Columns and labels:
Ribonuclease T1 = target: T1, Ribonuclease T1 (Aspergillus oryzae, UniProt P00651); test: Visual detection ribonuclease assay, cleavage of Substrate ODN by RNase T1; assay type: biochemical; parameters: key to Sensitivity of Substrate ODN to Ribonuclease T1, relative signal intensity: +++ = maximum intensity; ++ = moderate intensity; + = faint but above background; − = negative (identical to background); details: Substrate 500 nM; for Sensitivity of Substrate ODN to Ribonuclease T1, relative signal intensity: visual inspection, UV excitation, 37° C. 60 minutes
T1 sequence (P00651 27-130): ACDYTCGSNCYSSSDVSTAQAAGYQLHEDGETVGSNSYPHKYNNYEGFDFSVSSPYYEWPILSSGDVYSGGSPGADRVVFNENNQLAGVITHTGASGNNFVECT
Method in brief: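 Substrate ODNs at 500 nM in 1× Assay Buffer; RNase T1 serially diluted to final 0.001, 0.0001 and 0.00001 units/ml. After incubation (60 min at 37 °C, or 10 min at room temperature), fluorescence under UV excitation was inspected by eye and scored +++, ++, + or − by relative intensity.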

[1] = Ribonuclease assay on an environmental sample (tapwater), visual detection; assay type: biochemical; details: with Assay Buffer, Substrate 500 nM, room temperature 10 minutes
Method: Nuclease assays were conducted using the method of the invention. Dilutions of the test sample (tapwater) were made in nuclease-free water both with and without the addition of Assay Buffer. Samples were tested having 100%, 50%, 25%, 10%, 5%, and 1% tapwater. Assay Mixes contained test sample (diluted or undiluted tapwater) and Substrate (SEQ ID NO:30) at a concentration of 500 nM (50 pmoles ODN in 100 ul volume). Control Assay Mixes were in nuclease-free water without added tapwater. Duplicate Assays were performed with and without 1× Assay Buffer. Assay Mixes were incubated at room temperature for 10 minutes. Reactions were visually examined for fluorescence emission in the assay tubes without further manipulation. Tubes were suspended above an ultraviolet light source, visually inspected, and photographed using a digital camera. […] The test samples (with tapwater) emitted fluorescent signal. With Assay Buffer, tapwater was detectable when diluted to as little as 10 parts-per-thousand (1%). Without Assay Buffer, the assay was less sensitive and fluorescent emission was less intense. Addition of Buffer thus led to improved assay sensitivity.

Ribonuclease A = target: T2, Ribonuclease A (Bos taurus, UniProt P61823); test: Visual detection ribonuclease assay, cleavage of Substrate ODN by RNase A; assay type: biochemical, mammalian; parameters: key to Sensitivity of Substrate ODN to Ribonuclease A, relative signal intensity: +++ = maximum intensity; ++ = moderate intensity; + = faint but above background; − = negative (identical to background); details: Substrate 500 nM; for Sensitivity of Substrate ODN to Ribonuclease A, relative signal intensity: visual inspection, UV excitation, 37° C. 60 minutes
T2 sequence (P61823 27-150): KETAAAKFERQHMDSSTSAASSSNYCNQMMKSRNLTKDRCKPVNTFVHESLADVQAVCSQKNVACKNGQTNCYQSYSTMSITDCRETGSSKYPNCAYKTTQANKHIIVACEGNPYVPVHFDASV
Method in brief: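 Fluorogenic substrate oligonucleotides (500 nM for visual, 50 nM for fluorometric read) cut by serially diluted RNase A, 10 min at room temperature or 60 min at 37° C. Cleavage judged by fluorescence under UV excitation, scored +++ to − by relative intensity.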

[2] = final dilution factors of stock 10^−2 to 10^−7, room temperature 10 minutes

Substance: 5′ Fluorescein-AauggcA-QSY-7 3′ (NAAUGGCAN; 5' fluorescein and 3' QSY-7 labels, nucleotide chemistry not given here) [SEQ ID NO:30]
- Sensitivity of Substrate ODN to Ribonuclease T1, relative signal intensity (Ribonuclease T1; RNase T1 10^−3 units/ml): +++
- Sensitivity of Substrate ODN to Ribonuclease T1, relative signal intensity (Ribonuclease T1; RNase T1 10^−4 units/ml): +++
- Sensitivity of Substrate ODN to Ribonuclease T1, relative signal intensity (Ribonuclease T1; RNase T1 10^−5 units/ml): +++
- Detection of RNase T1 activity by visual examination (Ribonuclease T1; [2]): clearly detectable
- Lowest tapwater concentration detectable [1]: 1%
- Sensitivity of Substrate ODN to Ribonuclease A, relative signal intensity (Ribonuclease A; RNase A 10 pg/ml): ++
- Sensitivity of Substrate ODN to Ribonuclease A, relative signal intensity (Ribonuclease A; RNase A 100 pg/ml): +++
- Sensitivity of Substrate ODN to Ribonuclease A, relative signal intensity (Ribonuclease A; RNase A 1 ng/ml): +++
- Fluorescence emission by visual inspection in the presence of RNase (Ribonuclease A; RNase A 1.0 ug/ml, room temperature 10 minutes, UV light source): visibly bright
- Detection of RNase A activity by visual examination (Ribonuclease A; [2]): clearly detectable
- Fluorescence emission by visual inspection in the absence of RNase (control reaction) (Ribonuclease A; no nuclease, room temperature 10 minutes, UV light source): visually transparent (dark)

From patent US7276337B2, “Compositions and methods for visual ribonuclease detection assays” (Integrated DNA Technologies, Inc., priority 2000, dated 2007)
